PubChem BioAssay (NCI)
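Abbreviation: GI50, concentration required for 50% inhibition of growth. TGI marks complete inhibition of growth.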

Key:
Assay in all cases: NCI tumour cell line growth inhibition, 384-well format
HOP-92 NSCLC = test system: HOP-92 NSCLC
SN12C renal = test system: SN12C renal
SF-295 CNS = test system: SF-295 CNS
MDA-MB-468 breast = test system: MDA-MB-468 breast
SK-OV-3 ovarian = test system: SK-OV-3 ovarian
T-47D breast = test system: T-47D breast
RPMI-8226 leukemia = test system: RPMI-8226 leukemia
RXF 393 renal = test system: RXF 393 renal
SK-MEL-2 melanoma = test system: SK-MEL-2 melanoma
HCT-116 colon = test system: HCT-116 colon
MDA-MB-435 melanoma = test system: MDA-MB-435 melanoma
SK-MEL-5 melanoma = test system: SK-MEL-5 melanoma
DU-145 prostate = test system: DU-145 prostate
K-562 leukemia = test system: K-562 leukemia
KM12 colon = test system: KM12 colon
SNB-19 CNS = test system: SNB-19 CNS
SNB-75 CNS = test system: SNB-75 CNS
A549 NSCLC = test system: A549 NSCLC
OVCAR-3 ovarian = test system: OVCAR-3 ovarian
OVCAR-8 ovarian = test system: OVCAR-8 ovarian
UO-31 renal = test system: UO-31 renal
NCI-H322M lung = test system: NCI-H322M lung
BT-549 breast = test system: BT-549 breast
SR leukemia = test system: SR leukemia
M14 melanoma = test system: M14 melanoma
HT29 colon = test system: HT29 colon
NCI-H460 NSCLC = test system: NCI-H460 NSCLC
SF-268 CNS = test system: SF-268 CNS
MOLT-4 leukemia = test system: MOLT-4 leukemia
OVCAR-4 ovarian = test system: OVCAR-4 ovarian
ACHN renal = test system: ACHN renal
786-0 renal = test system: 786-0 renal
HL-60(TB) leukemia = test system: HL-60(TB) leukemia
NCI/ADR-RES ovarian = test system: NCI/ADR-RES ovarian
SF-539 CNS = test system: SF-539 CNS
PC-3 prostate = test system: PC-3 prostate
TK-10 renal = test system: TK-10 renal
HCT-15 colon = test system: HCT-15 colon
COLO 205 colon = test system: COLO 205 colon
HS 578T breast = test system: HS 578T breast
NCI-H522 lung = test system: NCI-H522 lung
U251 glioblastoma = test system: U251 glioblastoma
OVCAR-5 ovarian = test system: OVCAR-5 ovarian
UACC-257 melanoma = test system: UACC-257 melanoma
HCC-2998 colon = test system: HCC-2998 colon
MALME-3M melanoma = test system: MALME-3M melanoma
HOP-62 NSCLC = test system: HOP-62 NSCLC

COCCNc1cc(NC(=O)N2CCCc3cc(CN4CCN(C)CC4=O)c(C=O)nc32)ncc1C#N
TGI (HOP-92 NSCLC): > 100000 nM
GI50 (SN12C renal): > 100000 nM
TGI (SN12C renal): > 100000 nM
GI50 (SF-295 CNS): > 100000 nM
TGI (SF-295 CNS): > 100000 nM
GI50 (MDA-MB-468 breast): 4830 nM
TGI (MDA-MB-468 breast): > 100000 nM
GI50 (SK-OV-3 ovarian): > 100000 nM
TGI (SK-OV-3 ovarian): > 100000 nM
GI50 (T-47D breast): > 77700 nM
TGI (T-47D breast): > 100000 nM
GI50 (RPMI-8226 leukemia): > 21100 nM
TGI (RPMI-8226 leukemia): > 43900 nM
GI50 (RXF 393 renal): > 100000 nM
TGI (RXF 393 renal): > 100000 nM
GI50 (SK-MEL-2 melanoma): > 100000 nM
TGI (SK-MEL-2 melanoma): > 100000 nM
GI50 (HCT-116 colon): > 100000 nM
TGI (HCT-116 colon): > 100000 nM
GI50 (MDA-MB-435 melanoma): > 100000 nM
TGI (MDA-MB-435 melanoma): > 100000 nM
GI50 (SK-MEL-5 melanoma): > 100000 nM
TGI (SK-MEL-5 melanoma): > 100000 nM
GI50 (DU-145 prostate): > 100000 nM
TGI (DU-145 prostate): > 100000 nM
GI50 (K-562 leukemia): 22200 nM
TGI (K-562 leukemia): > 100000 nM
GI50 (KM12 colon): > 100000 nM
TGI (KM12 colon): > 100000 nM
GI50 (SNB-19 CNS): > 100000 nM
TGI (SNB-19 CNS): > 100000 nM
GI50 (SNB-75 CNS): > 100000 nM
TGI (SNB-75 CNS): > 100000 nM
GI50 (A549 NSCLC): > 100000 nM
TGI (A549 NSCLC): > 100000 nM
GI50 (OVCAR-3 ovarian): > 69300 nM
TGI (OVCAR-3 ovarian): > 100000 nM
GI50 (OVCAR-8 ovarian): > 100000 nM
TGI (OVCAR-8 ovarian): > 100000 nM
GI50 (UO-31 renal): > 100000 nM
TGI (UO-31 renal): > 100000 nM
GI50 (NCI-H322M lung): > 100000 nM
TGI (NCI-H322M lung): > 100000 nM
GI50 (BT-549 breast): > 100000 nM
TGI (BT-549 breast): > 100000 nM
GI50 (SR leukemia): 3310 nM
TGI (SR leukemia): 10800 nM
GI50 (M14 melanoma): > 100000 nM
TGI (M14 melanoma): > 100000 nM
GI50 (HT29 colon): > 100000 nM
TGI (HT29 colon): > 100000 nM
GI50 (NCI-H460 NSCLC): > 100000 nM
TGI (NCI-H460 NSCLC): > 100000 nM
GI50 (SF-268 CNS): > 100000 nM
TGI (SF-268 CNS): > 100000 nM
GI50 (MOLT-4 leukemia): 6800 nM
TGI (MOLT-4 leukemia): > 100000 nM
GI50 (OVCAR-4 ovarian): > 100000 nM
TGI (OVCAR-4 ovarian): > 100000 nM
GI50 (ACHN renal): > 100000 nM
TGI (ACHN renal): > 100000 nM
GI50 ([…]-0 renal): > 100000 nM
TGI (786-0 renal): > 100000 nM
GI50 (HL-60(TB) leukemia): 99600 nM
TGI (HL-60(TB) leukemia): > 100000 nM
GI50 (NCI/ADR-RES ovarian): > 100000 nM
TGI (NCI/ADR-RES ovarian): > 100000 nM
GI50 (SF-539 CNS): > 100000 nM
TGI (SF-539 CNS): > 100000 nM
GI50 (PC-3 prostate): > 100000 nM
TGI (PC-3 prostate): > 100000 nM
GI50 (TK-10 renal): > 84900 nM
TGI (TK-10 renal): > 100000 nM
GI50 (HCT-15 colon): > 100000 nM
TGI (HCT-15 colon): > 100000 nM
GI50 (COLO 205 colon): > 100000 nM
TGI (COLO 205 colon): > 100000 nM
GI50 (HS 578T breast): > 100000 nM
TGI (HS 578T breast): > 100000 nM
GI50 (NCI-H522 lung): > 42200 nM
TGI (NCI-H522 lung): > 100000 nM
GI50 (U251 glioblastoma): > 100000 nM
TGI (U251 glioblastoma): > 100000 nM
GI50 (OVCAR-5 ovarian): > 100000 nM
TGI (OVCAR-5 ovarian): > 100000 nM
GI50 (UACC-257 melanoma): > 100000 nM
TGI (UACC-257 melanoma): > 100000 nM
GI50 (HCC-2998 colon): > 100000 nM
TGI (HCC-2998 colon): > 100000 nM
GI50 (MALME-3M melanoma): > 100000 nM
TGI (MALME-3M melanoma): > 100000 nM
GI50 (HOP-62 NSCLC): > 100000 nM
TGI (HOP-62 NSCLC): > 100000 nM

Cc1[nH]c2ccccc2c1CCNCc1ccc(/C=C/C(=O)NO)cc1
GI50 (HOP-92 NSCLC): 13.3 nM
TGI (HOP-92 NSCLC): 32.5 nM
GI50 (SN12C renal): 18.6 nM
TGI (SN12C renal): 41.1 nM
GI50 (SF-295 CNS): 18.5 nM
TGI (SF-295 CNS): 41.3 nM
GI50 (MDA-MB-468 breast): < 10 nM
TGI (MDA-MB-468 breast): 17.9 nM
GI50 (SK-OV-3 ovarian): 15.4 nM
TGI (SK-OV-3 ovarian): 33.3 nM
GI50 (T-47D breast): < 10.9 nM
TGI (T-47D breast): 21.4 nM
GI50 (RPMI-8226 leukemia): < 10 nM
TGI (RPMI-8226 leukemia): < 10 nM
GI50 (RXF 393 renal): < 11.7 nM
TGI (RXF 393 renal): 18.6 nM
GI50 (SK-MEL-2 melanoma): < 10 nM
TGI (SK-MEL-2 melanoma): < 10 nM
GI50 (HCT-116 colon): < 10 nM
TGI (HCT-116 colon): 17.9 nM
GI50 (MDA-MB-435 melanoma): 18.1 nM
TGI (MDA-MB-435 melanoma): 43.4 nM
GI50 (SK-MEL-5 melanoma): < 10 nM
TGI (SK-MEL-5 melanoma): 14 nM
GI50 (DU-145 prostate): < 10 nM
TGI (DU-145 prostate): 17.9 nM
GI50 (K-562 leukemia): < 10 nM
TGI (K-562 leukemia): 14.8 nM
GI50 (KM12 colon): 23.1 nM
TGI (KM12 colon): 94.8 nM
GI50 (SNB-19 CNS): 23.4 nM
TGI (SNB-19 CNS): 65.3 nM
GI50 (SNB-75 CNS): < 12.4 nM
TGI (SNB-75 CNS): 45.9 nM
GI50 (A549 NSCLC): 15.6 nM
TGI (A549 NSCLC): 42.2 nM
GI50 (OVCAR-3 ovarian): 16.7 nM
TGI (OVCAR-3 ovarian): 43.7 nM
GI50 (OVCAR-8 ovarian): < 10 nM
TGI (OVCAR-8 ovarian): 28.6 nM
GI50 (UO-31 renal): 31.8 nM
TGI (UO-31 renal): 128 nM
GI50 (NCI-H322M lung): 13.9 nM
TGI (NCI-H322M lung): 53.8 nM
GI50 (BT-549 breast): 43.4 nM
TGI (BT-549 breast): 123 nM
GI50 (SR leukemia): < 10 nM
TGI (SR leukemia): < 10 nM
GI50 (M14 melanoma): 14.7 nM
TGI (M14 melanoma): 82.2 nM
GI50 (HT29 colon): 12.5 nM
TGI (HT29 colon): 28.5 nM
GI50 (NCI-H460 NSCLC): 12.5 nM
TGI (NCI-H460 NSCLC): 51.1 nM
GI50 (SF-268 CNS): 15.2 nM
TGI (SF-268 CNS): 39.1 nM
GI50 (MOLT-4 leukemia): < 10 nM
TGI (MOLT-4 leukemia): < 10 nM
GI50 (OVCAR-4 ovarian): 27.5 nM
TGI (OVCAR-4 ovarian): 60.9 nM
GI50 (ACHN renal): 20.3 nM
TGI (ACHN renal): 53.8 nM
GI50 ([…]-0 renal): 21.4 nM
TGI (786-0 renal): 114 nM
GI50 (HL-60(TB) leukemia): < 10 nM
TGI (HL-60(TB) leukemia): < 10 nM
GI50 (NCI/ADR-RES ovarian): 39 nM
TGI (NCI/ADR-RES ovarian): 181 nM
GI50 (SF-539 CNS): 18.6 nM
TGI (SF-539 CNS): 86 nM
GI50 (PC-3 prostate): 14.2 nM
TGI (PC-3 prostate): 39.9 nM
GI50 (TK-10 renal): 17.3 nM
TGI (TK-10 renal): 55.2 nM
GI50 (HCT-15 colon): 51.5 nM
TGI (HCT-15 colon): 257 nM
GI50 (COLO 205 colon): 12.3 nM
TGI (COLO 205 colon): 22.7 nM
GI50 (HS 578T breast): 11.5 nM
TGI (HS 578T breast): 24.3 nM
GI50 (NCI-H522 lung): < 10 nM
TGI (NCI-H522 lung): 18.5 nM
GI50 (U251 glioblastoma): 12.2 nM
TGI (U251 glioblastoma): 26.8 nM
GI50 (OVCAR-5 ovarian): 10.1 nM
TGI (OVCAR-5 ovarian): 33.7 nM
GI50 (UACC-257 melanoma): < 10.7 nM
TGI (UACC-257 melanoma): 24.4 nM
GI50 (HCC-2998 colon): 15.1 nM
TGI (HCC-2998 colon): 33.7 nM
GI50 (MALME-3M melanoma): < 10 nM
TGI (MALME-3M melanoma): 16.3 nM
GI50 (HOP-62 NSCLC): 13.1 nM
TGI (HOP-62 NSCLC): 64.4 nM
